The text below walks through data of US8546608B2, “Proteasome inhibitors and methods of using the same” (Cephalon, Inc., priority 2003, dated 2013).

Assay [1] deals with T1, proteasome in Molt-4 cells (human leukemia) (Homo sapiens, UniProt P20618+P28074).
T1 sequence (P28074 60-263): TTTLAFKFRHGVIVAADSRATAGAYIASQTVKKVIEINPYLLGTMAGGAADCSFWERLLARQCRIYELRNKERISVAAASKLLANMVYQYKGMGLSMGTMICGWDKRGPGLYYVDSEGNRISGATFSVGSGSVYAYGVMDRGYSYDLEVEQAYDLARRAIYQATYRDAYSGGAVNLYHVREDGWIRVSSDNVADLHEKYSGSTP
T1 sequence (P20618 29-241): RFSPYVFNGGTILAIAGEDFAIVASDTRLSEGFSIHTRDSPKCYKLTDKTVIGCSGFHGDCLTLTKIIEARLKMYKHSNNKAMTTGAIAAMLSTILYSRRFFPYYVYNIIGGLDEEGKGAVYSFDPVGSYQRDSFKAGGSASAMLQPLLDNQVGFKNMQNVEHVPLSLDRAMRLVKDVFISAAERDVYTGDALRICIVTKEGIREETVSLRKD
The assay is classed as cell-based. As to conditions: assay of Example E, inhibition of MOLT4; read-out: MOLT4 (EC50). In short, it runs like this: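 Intact Molt-4 cells (6×10^6 cells/mL) in HEPES-buffered saline were preincubated with inhibitor 15 min at 37 °C, then given cell-permeable MeOSuc-FLF-AFC at 25 μM final.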

Assay [2] has as its target T2, 20S Human Erythrocyte Proteasome (HEP) (Homo sapiens, UniProt P20618+P28074).
T2 construct: 20S Human Erythrocyte Proteasome (HEP), purchased from Immatics Biotechnologies Inc; purchased Immatics Biotechnologies Inc., Tübingen, Germany; host or cells: human erythrocytes (natural source)
The assay is described as follows: Chymotrypsin-like activity of 20S Human Erythrocyte Proteasome (HEP), IC50 determination. In kind it is biochemical. The note with it: assay of Example C, inhibition of HEP. In short, it runs like this: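 20S proteasome at 0.2 μg/mL (about 0.6 nM catalytic sites) in 20 mM Tris with 0.04% SDS, preincubated 15 min at 37° C with inhibitor before Suc-LLVY-AMC (100 μM final). AMC fluorescence read in the linear range; triplicates, IC50 from concentration series.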

Consider `CC(C)C[C@H](NC(=O)[C@H](CCCNC(=N)N[N+](=O)[O-])NC(=O)CCc1c[nH]c2ccccc12)B1O[C@@H]2C[C@@H]3C[C@@H](C3(C)C)[C@]2(C)O1` [D.3.103, 3-(1H-Indol-3-yl)-propanamide,N-[(1S)-1-[[[(1R)-1-[(3aS,4S,6S,7aR)-hexahydro-3a,5,5-trimethyl-4,6-methano-1,3,2-benzodioxaborol-2-yl]-3-methylbutyl]amino]carbonyl]-4-[[imino(nitroamino)methyl]amino]butyl]], for which the EC50 – broadly, the midpoint of the concentration-response curve – in assay [1] is 200 to 2000 nM. Also, the 50% inhibitory concentration (IC50) (usually the concentration needed to halve the response being measured) in assay [2] is < 10 nM.
The corresponding values for `CC(C)C[C@H](NC(=O)[C@H](CCCNC(=N)N[N+](=O)[O-])NC(=O)CCCOc1ccccc1)B1O[C@@H]2C[C@@H]3C[C@@H](C3(C)C)[C@]2(C)O1` [D.3.104] are 200 to 2000 nM and < 10 nM.
Regarding `CC(C)C[C@H](NC(=O)[C@H](CCCNC(=N)N[N+](=O)[O-])NC(=O)CCCC(=O)c1ccccc1)B1O[C@@H]2C[C@@H]3C[C@@H](C3(C)C)[C@]2(C)O1` [D.3.105, 5-Oxo-5-phenyl-pentanamide,N-[(1S)-1-[[[(1R)-1-[(3aS,4S,6S,7aR)-hexahydro-3a,5,5-trimethyl-4,6-methano-l,3,2-benzodioxaborol-2-yl]-3-methylbutyl]amino]carbonyl]-4-[[imino(nitroamino)methyl]amino]butyl]], the EC50 in assay [1] lay within 200 to 2000 nM. The IC50 in assay [2] was < 10 nM.
On the same counts, the results for `CC(C)C[C@H](NC(=O)[C@H](CCCNC(=N)N[N+](=O)[O-])NC(=O)CCCCCCCc1ccccc1)B1O[C@@H]2C[C@@H]3C[C@@H](C3(C)C)[C@]2(C)O1` [D.3.117, 8-Phenyl-octanamide,N-[(1S)-1-[[[(1R)-1-[(3aS,4S,6S,7aR)-hexahydro-3a,5,5-trimethyl-4,6-methano-1,3,2-benzodioxaborol-2-yl]-3-methylbutyl]amino]carbonyl]-4-[[imino(nitroamino)methyl]amino]butyl]] are < 200 nM and < 10 nM.
The corresponding values for `CCCCCCCCCCCCC(=O)N[C@@H](CCCNC(=N)N[N+](=O)[O-])C(=O)N[C@@H](CC(C)C)B1O[C@@H]2C[C@@H]3C[C@@H](C3(C)C)[C@]2(C)O1` [D.3.119, Tridecanamide,N-[(1S)-1-[[[(1R)-1-[(3aS,4S,6S,7aR)-hexahydro-3a,5,5-trimethyl-4,6-methano-1,3,2-benzodioxaborol-2-yl]-3-methylbutyl]amino]carbonyl]-4-[[imino(nitroamino)methyl]amino]butyl]] are < 200 nM and < 10 nM.
`CC(C)C[C@H](NC(=O)[C@H](CCCNC(=N)N[N+](=O)[O-])NC(=O)CCCNC(=O)OCC1c2ccccc2-c2ccccc21)B1O[C@@H]2C[C@@H]3C[C@@H](C3(C)C)[C@]2(C)O1` [D.3.122, [[[(9H-fluoren-9-yl)methoxy]carbonyl]amino]butanamide, N-[(1S)-1-[[[(1R)-1-[(3aS,4S,6S,7aR)-hexahydro-3a,5,5-trimethyl-4,6-methano-1,3,2-benzodioxaborol-2-yl]-3-methylbutyl]amino]carbonyl]-4-[[imino(nitroamino)methyl]amino]butyl]]: the EC50 in assay [1] was < 200 nM. In assay [2], the IC50 is < 10 nM.
The corresponding values for `CC(C)C[C@H](NC(=O)[C@H](CCCNC(=N)N[N+](=O)[O-])NC(=O)CCCCc1ccc(F)cc1)B1O[C@@H]2C[C@@H]3C[C@@H](C3(C)C)[C@]2(C)O1` [D.3.124, 5-(4-Fluorophenyl)-pentanamide,N-[(1S)-1-[[[(1R)-1-[(3aS,4S,6S,7aR)-hexahydro-3a,5,5-trimethyl-4,6-methano-1,3,2-benzodioxaborol-2-yl]-3-methylbutyl]amino]carbonyl]-4-[[imino(nitroamino)methyl]amino]butyl]] are < 200 nM and < 10 nM.
`CC(C)C[C@H](NC(=O)[C@H](CCCNC(=N)N[N+](=O)[O-])NC(=O)CCCCCCC(=O)c1ccccc1)B1O[C@@H]2C[C@@H]3C[C@@H](C3(C)C)[C@]2(C)O1` [D.3.125, 8-Oxo-8-phenyloctanamide,N-[(1S)-1-[[[(1R)-1-[(3aS,4S,6S,7aR)-hexahydro-3a,5,5-trimethyl-4,6-methano-l,3,2-benzodioxaborol-2-yl]-3-methylbutyl]amino]carbonyl]-4-[[imino(nitroamino)methyl]amino]butyl]]: the concentration giving a half-maximal response (EC50) in assay [1] is < 200 nM. Also, the IC50 in assay [2] was < 10 nM.
Take `CC(C)C[C@H](NC(=O)[C@H](CCCNC(=N)N[N+](=O)[O-])NC(=O)CCCc1cccs1)B1O[C@@H]2C[C@@H]3C[C@@H](C3(C)C)[C@]2(C)O1` [D.3.126, 4-(Thiophen-2-yl)butanamide,N-[(1S)-1-[[[(1R)-1-[(3aS,4S,6S,7aR)-hexahydro-3a,5,5-trimethyl-4,6-methano-1,3,2-benzodioxaborol-2-yl]-3-methylbutyl]amino]carbonyl]-4-[[imino(nitroamino)methyl]amino]butyl]]: in assay [1], the EC50 was < 200 nM. The IC50 in assay [2] is < 10 nM.
As for `CC(C)C[C@H](NC(=O)[C@H](CCCNC(=N)N[N+](=O)[O-])NC(=O)Cc1cccc(Cl)c1)B1O[C@@H]2C[C@@H]3C[C@@H](C3(C)C)[C@]2(C)O1` [D.3.128, 2-(3-Chlorophenyl)acetamide,N-[(1S)-1-[[[(1R)-1-[(3aS,4S,6S,7aR)-hexahydro-3a,5,5-trimethyl-4,6-methano-1,3,2-benzodioxaborol-2-yl]-3-methylbutyl]amino]carbonyl]-4-[[imino(nitroamino)methyl]amino]butyl]], in assay [1], the EC50 is 200 to 2000 nM. In addition, in assay [2], the IC50 was < 10 nM.
`CCCCCCCCCCC(=O)N[C@@H](CCCNC(=N)N[N+](=O)[O-])C(=O)N[C@@H](CC(C)C)B1O[C@@H]2C[C@@H]3C[C@@H](C3(C)C)[C@]2(C)O1` [D.3.129, Undecanamide,N-[(1S)-1-[[[(1R)-1-[(3aS,4S,6S,7aR)-hexahydro-3a,5,5-trimethyl-4,6-methano-1,3,2-benzodioxaborol-2-yl]-3-methylbutyl]amino]carbonyl]-4-[[imino(nitroamino)methyl]amino]butyl]]: the concentration giving a half-maximal response (EC50) in assay [1] is < 200 nM. Moreover, the 50% inhibitory concentration (IC50) in assay [2] was < 10 nM.
On the same counts, the results for `CC(C)C[C@H](NC(=O)[C@H](CCCNC(=N)N[N+](=O)[O-])NC(=O)CCCCCc1ccccc1)B1O[C@@H]2C[C@@H]3C[C@@H](C3(C)C)[C@]2(C)O1` [D.3.131, 6-Phenylhexanamide,N-[(1S)-1-[[[(1R)-1-[(3aS,4S,6S,7aR)-hexahydro-3a,5,5-trimethyl-4,6-methano-1,3,2-benzodioxaborol-2-yl]-3-methylbutyl]amino]carbonyl]-4-[[imino(nitroamino)methyl]amino]butyl]] are < 200 nM and < 10 nM.
As to `CC(C)C[C@H](NC(=O)[C@H](CCCNC(=N)N[N+](=O)[O-])NC(=O)CCCCc1ccccc1)B1O[C@@H]2C[C@@H]3C[C@@H](C3(C)C)[C@]2(C)O1` [D.3.132, 5-Phenylpentanamide,N-[(1S)-1-[[[(1R)-1-[(3aS,4S,6S,7aR)-hexahydro-3a,5,5-trimethyl-4,6-methano-1,3,2-benzodioxaborol-2-yl]-3-methylbutyl]amino]carbonyl]-4-[[imino(nitroamino)methyl]amino]butyl]], the half-maximal effective concentration (EC50) in assay [1] is < 200 nM. In assay [2], the IC50 is < 10 nM.
Regarding `CC(C)C[C@H](NC(=O)[C@H](CCCNC(=N)N[N+](=O)[O-])NC(=O)CCCCCCCCCO)B1O[C@@H]2C[C@@H]3C[C@@H](C3(C)C)[C@]2(C)O1` [D.3.133, 10-Hydroxydecanamide,N-[(1S)-1-[[[(1R)-1-[(3aS,4S,6S,7aR)-hexahydro-3a,5,5-trimethyl-4,6-methano-1,3,2-benzodioxaborol-2-yl]-3-methylbutyl]amino]carbonyl]-4-[[imino(nitroamino)methyl]amino]butyl]], the concentration for a half-maximal effect (EC50) in assay [1] lay in the range of 200 to 2000 nM. Moreover, the 50% inhibitory concentration (IC50) in assay [2] is < 10 nM.
In the case of `CC(C)C[C@H](NC(=O)[C@H](CCCNC(=N)N[N+](=O)[O-])NC(=O)Cn1cnnn1)B1O[C@@H]2C[C@@H]3C[C@@H](C3(C)C)[C@]2(C)O1` [D.3.136], in assay [1], the EC50 is > 10000 nM. Also, the half-maximal inhibitory concentration (IC50) in assay [2] was < 10 nM.
Take `CC(C)C[C@H](NC(=O)[C@H](CCCNC(=N)N[N+](=O)[O-])NC(=O)CSc1ncccn1)B1O[C@@H]2C[C@@H]3C[C@@H](C3(C)C)[C@]2(C)O1` [D.3.137]: the 50% effective concentration (EC50) in assay [1] fell in the range of 2000 to 10000 nM. Also, the IC50 in assay [2] was < 100 nM.
The corresponding values for `CSCCC(=O)N[C@@H](CCCNC(=N)N[N+](=O)[O-])C(=O)N[C@@H](CC(C)C)B1O[C@@H]2C[C@@H]3C[C@@H](C3(C)C)[C@]2(C)O1` [D.3.138, 3-Methylsulfanylpropanamide,N-[(1S)-1-[[[(1R)-1-[(3aS,4S,6S,7aR)-hexahydro-3a,5,5-trimethyl-4,6-methano-1,3,2-benzodioxaborol-2-yl]-3-methylbutyl]amino]carbonyl]-4-[[imino(nitroamino)methyl]amino]butyl]] are 200 to 2000 nM and < 100 nM.
